Earlier results on 1 molecule are cited in publication PMC6437649 (Molecular Pharmaceutics, 2019).

The log P is a log measure of how a compound divides between an organic and an aqueous phase. Turning to `C#C[C@]1(O)CC[C@H]2[C@@H]3CCC4=Cc5oncc5C[C@]4(C)[C@H]3CC[C@@]21C` [danazol], the “log P” value is 4.9.
